| SMILES | melting point [°C] |
| --- | --- |
| O=C(Nc1ccc(-c2noc(C(F)(F)F)n2)cc1)C1CCC1 [Ex-2, N-[4-[5-(trifluoromethyl)-1,2,4-oxadiazol-3-yl]phenyl]cyclobutanecarboxamide] | 183 |
| CN(C(=O)C1CC1)c1ccc(-c2noc(C(F)(F)F)n2)cc1 [Ex-7, N-methyl-N-[4-[5-(trifluoromethyl)-1,2,4-oxadiazol-3-yl]phenyl]cyclopropanecarboxamide] | 98 |

From patent US10687532B2, “Substituted oxadiazoles for combating phytopathogenic fungi” (BASF SE, priority 2015, dated 2020)
